Consider 24 molecules from patent US9382254B2, “Compounds and pharmaceutical compositions thereof for the treatment of cystic fibrosis” (Galapagos NV, priority 2013, dated 2016).

Test [1] addresses T1, CFTR ΔF508 mutant (Homo sapiens, UniProt P13569, DEL508-508).
T1 construct: expressed in transfected cells; host or cells: CFBE41o- (adenoviral transduction)
Kind of test: YFP-halide influx assay for the CFTR-ΔF508 mutation (384 well, FDSS/μCell). Format: cell-based. The note with it: CFBE41o- cells, CFTR-ΔF508, 1×D-PBS, fluorescence after 36 seconds. From the text: The YFP halide influx assay measures the functionality of the cystic fibrosis Transmembrane Conductance regulator (CFTR) channels in the cystic fibrosis bronchial epithelium cell line CFBE41o-. The assay is used to evaluate the capacity of compounds to increase the open probability of existing CFTR channels in the membrane. It makes use of the observation that the yellow fluorescent protein (YFP) variant YFP H148Q, I152L has its fluorescence substantially quenched by halide ions like Cl— and I—. (Galietta, Haggie, & Verkman, 2001) (Nagai, et al., 2002)
For this purpose, CFBE41o-cells are seeded in 384 well plates (3000 CFBE cells/well). One day after seeding, the CFBE cells are transduced with adenoviral vectors that direct the expression of the CFTR ΔF508 mutant and of the YFP reporter. Cells are incubated at 27° C., 5% CO2 for 24 hours so as to allow for the proper folding and migration to the membrane of the CFTR channel or treated with a CFTR modulator during 24 h at 37° C.
The I— induced quenching of fluorescence is recorded […] immediately after injection of I— for 2 min on an FDSS/μCell (Hamamatsu). The capacity of a compound to increase the channel opening is directly correlated with the decrease in fluorescence, and is expressed as (1-(fluorescence after 36 seconds (F)/fluorescence before injection (F0))) and an EC50 can be derived from a (1-F/F0) vs compound concentration plot.

The target in test [2] is T2, CFTR G551D mutant (Homo sapiens, UniProt P13569, G551D).
T2 construct: expressed in transfected cells; host or cells: HEK293 (reverse transfection with plasmid)
T2 sequence (P13569 whole entry G551D): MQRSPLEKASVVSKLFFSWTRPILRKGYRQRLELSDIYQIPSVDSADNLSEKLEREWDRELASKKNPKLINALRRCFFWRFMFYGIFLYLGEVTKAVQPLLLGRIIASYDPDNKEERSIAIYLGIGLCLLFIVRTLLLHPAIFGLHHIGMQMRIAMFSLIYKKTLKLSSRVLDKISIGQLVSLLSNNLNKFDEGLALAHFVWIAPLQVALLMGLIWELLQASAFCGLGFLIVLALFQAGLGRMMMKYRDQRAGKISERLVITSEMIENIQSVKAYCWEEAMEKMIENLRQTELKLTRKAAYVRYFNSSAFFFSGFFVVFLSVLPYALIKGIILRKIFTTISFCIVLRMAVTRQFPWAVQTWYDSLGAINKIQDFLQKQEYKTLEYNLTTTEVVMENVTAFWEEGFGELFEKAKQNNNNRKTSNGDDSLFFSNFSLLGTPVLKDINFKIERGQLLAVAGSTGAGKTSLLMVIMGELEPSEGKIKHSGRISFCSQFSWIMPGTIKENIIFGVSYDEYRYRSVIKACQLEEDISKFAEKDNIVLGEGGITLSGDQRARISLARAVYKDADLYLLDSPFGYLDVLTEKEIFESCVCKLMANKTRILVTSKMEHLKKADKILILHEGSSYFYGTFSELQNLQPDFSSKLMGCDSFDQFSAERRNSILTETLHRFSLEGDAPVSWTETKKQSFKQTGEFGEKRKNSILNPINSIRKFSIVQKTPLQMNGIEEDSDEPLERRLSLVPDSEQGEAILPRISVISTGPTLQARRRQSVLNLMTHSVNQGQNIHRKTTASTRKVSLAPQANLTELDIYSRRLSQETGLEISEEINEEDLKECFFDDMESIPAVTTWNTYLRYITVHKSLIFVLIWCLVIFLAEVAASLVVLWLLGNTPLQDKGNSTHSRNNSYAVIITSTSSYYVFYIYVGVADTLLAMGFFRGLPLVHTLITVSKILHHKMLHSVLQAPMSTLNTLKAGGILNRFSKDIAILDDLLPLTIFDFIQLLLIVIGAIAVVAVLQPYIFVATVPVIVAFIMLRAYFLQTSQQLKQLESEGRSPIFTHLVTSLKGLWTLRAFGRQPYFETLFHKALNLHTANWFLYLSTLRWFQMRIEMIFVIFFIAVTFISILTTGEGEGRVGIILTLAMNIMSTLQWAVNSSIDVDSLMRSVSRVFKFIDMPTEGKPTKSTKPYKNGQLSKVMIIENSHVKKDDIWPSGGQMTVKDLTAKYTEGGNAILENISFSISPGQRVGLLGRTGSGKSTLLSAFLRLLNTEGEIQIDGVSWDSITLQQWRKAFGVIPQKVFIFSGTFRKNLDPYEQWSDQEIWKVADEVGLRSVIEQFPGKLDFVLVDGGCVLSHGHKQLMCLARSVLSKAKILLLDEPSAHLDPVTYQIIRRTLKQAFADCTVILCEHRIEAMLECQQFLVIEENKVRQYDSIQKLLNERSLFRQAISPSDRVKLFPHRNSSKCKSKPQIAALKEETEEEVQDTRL
The experiment in a line: YFP-halide influx assay for the CFTR-G551D mutation. Format: cell-based. The settings on record: HEK293 cells, forskolin 10.67 μM. From the text:
The YFP halide influx assay measures the functionality of the cystic fibrosis Transmembrane Conductance regulator (CFTR) channels. The assay is used to evaluate the capacity of compounds to increase the channel opening of existing mutant CFTR channels in the membrane. It makes use of the observation that the yellow fluorescent protein (YFP) variant YFP H148Q, I152L, […] has its fluorescence substantially quenched by halide ions like Cl^− and I^−. (Galietta, Haggie, & Verkman, 2001)
For this purpose, HEK293-cells are seeded in 96 well plates. During seeding, the cells are reverse-transfected with plasmid vectors that direct the expression of the CFTR G551D mutant and of the YFP reporter. Cells are incubated at 37° C., 5% CO2 for 24 hours so as to allow for sufficient expression of the CFTR protein.
The I^−-induced quenching of fluorescence is recorded immediately after injection of I^− for 7 seconds. The capacity of a compound to increase the channel opening is directly correlated with the decrease in fluorescence, and is expressed as (1-(fluorescence after 7 seconds (F)/fluorescence before injection (F0))) and an EC50 can be derived from a (1-F/F0) vs compound concentration plot.

T1 sequence (P13569 with tags, fused parts or gaps DEL508-508): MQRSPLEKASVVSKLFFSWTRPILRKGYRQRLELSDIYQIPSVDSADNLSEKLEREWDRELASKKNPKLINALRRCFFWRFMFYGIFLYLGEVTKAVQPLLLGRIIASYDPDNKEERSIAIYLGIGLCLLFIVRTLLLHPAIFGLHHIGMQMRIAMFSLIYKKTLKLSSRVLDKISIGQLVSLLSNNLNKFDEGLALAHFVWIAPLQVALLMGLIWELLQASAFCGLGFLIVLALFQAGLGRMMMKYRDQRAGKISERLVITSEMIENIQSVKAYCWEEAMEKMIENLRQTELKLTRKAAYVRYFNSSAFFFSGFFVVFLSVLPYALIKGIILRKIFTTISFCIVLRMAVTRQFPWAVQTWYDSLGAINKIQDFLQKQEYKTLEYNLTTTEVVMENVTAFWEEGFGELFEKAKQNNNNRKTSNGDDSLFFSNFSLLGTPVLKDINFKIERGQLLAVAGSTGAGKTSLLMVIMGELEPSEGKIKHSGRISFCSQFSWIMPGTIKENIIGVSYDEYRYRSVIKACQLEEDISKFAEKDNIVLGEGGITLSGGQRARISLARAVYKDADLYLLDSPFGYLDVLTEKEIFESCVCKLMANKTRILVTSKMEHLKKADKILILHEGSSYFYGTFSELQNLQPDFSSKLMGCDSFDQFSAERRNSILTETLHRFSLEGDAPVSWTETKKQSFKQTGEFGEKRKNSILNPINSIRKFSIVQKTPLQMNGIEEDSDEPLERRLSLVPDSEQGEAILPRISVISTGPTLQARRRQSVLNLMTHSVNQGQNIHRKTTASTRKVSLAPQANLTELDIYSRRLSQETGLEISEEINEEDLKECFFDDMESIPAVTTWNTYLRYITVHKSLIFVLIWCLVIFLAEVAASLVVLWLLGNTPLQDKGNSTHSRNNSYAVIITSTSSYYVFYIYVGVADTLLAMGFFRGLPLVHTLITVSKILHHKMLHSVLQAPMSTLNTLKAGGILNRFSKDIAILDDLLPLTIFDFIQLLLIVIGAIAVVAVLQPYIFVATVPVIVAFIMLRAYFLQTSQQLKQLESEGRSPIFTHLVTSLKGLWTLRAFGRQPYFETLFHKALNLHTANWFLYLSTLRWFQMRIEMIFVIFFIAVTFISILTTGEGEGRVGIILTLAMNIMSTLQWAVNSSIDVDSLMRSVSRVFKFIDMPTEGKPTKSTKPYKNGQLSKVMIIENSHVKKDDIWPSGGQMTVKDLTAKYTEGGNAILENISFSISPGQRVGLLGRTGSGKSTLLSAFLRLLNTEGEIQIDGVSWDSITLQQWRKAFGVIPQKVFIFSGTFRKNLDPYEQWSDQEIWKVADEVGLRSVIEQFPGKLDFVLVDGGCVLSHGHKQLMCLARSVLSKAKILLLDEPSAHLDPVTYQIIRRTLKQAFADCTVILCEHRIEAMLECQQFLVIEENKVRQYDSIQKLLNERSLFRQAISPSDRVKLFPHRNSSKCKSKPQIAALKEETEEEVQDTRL

Usually EC50 stands for the concentration that produces a half-maximal response. As to `CC(C)Oc1ccc(S(=O)(=O)c2cc(C(N)=O)c(NC(=O)C(C)(C)O)s2)c(F)c1` [Compound 315, 5-(2-Fluoro-4-isopropoxy-benzenesulfonyl)-2-(2-hydroxy-2-methyl-propionylamino)-thiophene-3-carboxylic acid amide], the EC50 in test [1] was determined as 42.4 nM; in test [2] it was 828 nM.
In the same order, the values of `Cc1ccc(S(=O)(=O)c2cc(C(N)=O)c(NC(=O)C(C)(C)O)s2)cc1` [Compound 316, 2-(2-Hydroxy-2-methyl-propionylamino)-5-(toluene-4-sulfonyl)-thiophene-3-carboxylic acid amide] are 31.1 nM and 1160 nM.
In the same order, the values of `CC(C)(O)C(=O)Nc1sc(S(=O)(=O)c2ncccc2Cl)cc1C(N)=O` [Compound 317, 5-(3-Chloro-pyridine-2-sulfonyl)-2-(2-hydroxy-2-methyl-propionylamino)-thiophene-3-carboxylic acid amide] are 241 nM and 3330 nM.
Taken in the same sequence, the figures for `CC(O)C(=O)Nc1sc(S(=O)(=O)c2ccc(OC(F)(F)F)cc2)cc1C(N)=O` (stereo not drawn) [Compound 318, 2-(2-Hydroxy-propionylamino)-5-(4-trifluoromethoxy-benzenesulfonyl)-thiophene-3-carboxylic acid amide] were 20.2 nM and 716 nM.
Consider `NC(=O)c1cc(S(=O)(=O)c2ccccc2OC(F)(F)F)sc1NC(=O)CO` [Compound 319, 2-(2-Hydroxy-acetylamino)-5-(2-trifluoromethoxy-benzensulfonyl)-thiophene-3-carboxylic acid amide], for which the EC50 in test [1] was 8.2 nM; in test [2] it was 377 nM.
Taken in the same sequence, the figures for `CC(O)C(=O)Nc1sc(S(=O)(=O)c2ccccc2Cl)cc1C(N)=O` (stereo not drawn) [Compound 321, 5-(2-Chloro-benzenesulfonyl)-2-(2-hydroxy-propionylamino)-thiophene-3-carboxylic acid amide] were 12.3 nM and 1930 nM.
Taken in the same sequence, the figures for `CC(C)Oc1ccc(S(=O)(=O)c2cc(C(N)=O)c(NC(=O)C(C)(C)O)s2)c(Cl)c1` [Compound 322, 5-(2-Chloro-4-isopropoxy-benzenesulfonyl)-2-(2-hydroxy-2-methyl-propionylamino)-thiophene-3-carboxylic acid amide] were 41.1 nM and 919 nM.
Take `CC(C)Oc1ccc(S(=O)(=O)c2cc(C(N)=O)c(NC(=O)C(C)(C)O)s2)c(C(F)(F)F)c1` [Compound 324, 2-(2-Hydroxy-2-methyl-propionylamino)-5-(4-isopropoxy-2-trifluoromethyl-benzenesulfonyl)-thiophene-3-carboxylic acid amide]: the EC50 came out at 84.2 nM in test [1] and 3160 nM in test [2].
For the molecule `Cc1ncccc1S(=O)(=O)c1cc(C(N)=O)c(NC(=O)C(C)O)s1` (stereo not drawn) [Compound 326, 2-(2-hydroxypropanoylamino)-5-[(2-methyl-3-pyridyl)sulfonyl] thiophene-3-carboxamide], the EC50 in test [1] was 1060 nM; in test [2] (class symbol), above 1000 nM.
As for `C[C@@H](O)C(=O)Nc1sc(S(=O)(=O)c2ccc(F)cc2)cc1C(N)=O` [Compound 327, 5-(4-fluorophenyl) sulfonyl-2-[[(2R)-2-hydroxypropanoyl]amino] thiophene-3-carboxamide], the EC50 in test [1] stood at 134 nM; in test [2], 3330 nM.
In the same order, the values of `CC(O)C(=O)Nc1sc(S(=O)(=O)c2ccc(OC(F)(F)F)cc2Cl)cc1C(N)=O` (stereo not drawn) [Compound 328, 5-[2-chloro-4-(trifluoromethoxy)phenyl] sulfonyl-2-(2-hydroxypropanoylamino) thiophene-3-carboxamide] are 25.8 nM and 427 nM.
In the same order, the values of `CC(C)(O)C(=O)Nc1sc(S(=O)(=O)c2cccc3c2OC(F)(F)O3)cc1C(N)=O` [Compound 330, 5-[(2,2-difluoro-1,3-benzodioxol-4-yl)sulfonyl]-2-[(2-hydroxy-2-methyl-propanoyl)amino] thiophene-3-carboxamide] are 5.3 nM and 62.2 nM.
For `C[C@@H](O)C(=O)Nc1sc(S(=O)(=O)c2ccc(OC(F)(F)F)cc2)cc1C(N)=O` [Compound 332, 2-[[(2R)-2-hydroxypropanoyl]amino]-5-[4-(trifluoromethoxy)phenyl] sulfonyl-thiophene-3-carboxamide], the figures for the EC50 in test [1] and in test [2] were 22.8 nM and 525 nM, respectively.
With `CC(O)C(=O)Nc1sc(S(=O)(=O)c2cc(F)ccc2C(F)(F)F)cc1C(N)=O` (stereo not drawn) [Compound 335, 5-[5-fluoro-2-(trifluoromethyl)phenyl] sulfonyl-2-(2-hydroxypropanoylamino) thiophene-3-carboxamide], the EC50 in test [1] was found to be 5.7 nM; in test [2], 107 nM.
In the same order, the values of `CC(C)(O)C(=O)Nc1sc(S(=O)(=O)c2cc(F)c(F)cc2Cl)cc1C(N)=O` [Compound 336, 5-(2-Chloro-4,5-difluoro-benzenesulfonyl)-2-(2-hydroxy-2-methyl-propionylamino)-thiophene-3-carboxylic acid amide] are 12.2 nM and 872 nM.
Taken in the same sequence, the figures for `CC(C)(O)C(=O)Nc1sc(S(=O)(=O)c2cc(F)ccc2CC(F)(F)F)cc1C(N)=O` [Compound 338, 5-[5-fluoro-2-(2,2,2-trifluoroethyl)phenyl]sulfonyl-2-[(2-hydroxy-2-methyl-propanoyl)amino] thiophene-3-carboxamide] were 5.4 nM and 859 nM.
Taken in the same sequence, the figures for `NC(=O)c1cc(S(=O)(=O)c2cc(F)ccc2Cl)sc1NC(=O)CO` [Compound 339, 5-(2-Chloro-5-fluoro-benzensulfonyl)-2-(2-hydroxy-acetylamino)-thiophene-3-carboxylic acid amide] were 8.1 nM and 1750 nM.
Consider `NC(=O)c1cc(S(=O)(=O)c2cc(F)ccc2CC(F)(F)F)sc1NC(=O)CO` [Compound 340, 5-[5-Fluoro-2-(2,2,2-trifluoro-ethyl)-benzenesulfonyl]-2-(2-hdyroxy-acetylamino)-thiophene-3-carboxylic acid amide], for which the EC50 in test [1] came out at 8 nM; in test [2], 478 nM.
Taken in the same sequence, the figures for `CC(C)C(O)C(=O)Nc1sc(S(=O)(=O)c2ccc(F)cc2)cc1C(N)=O` (stereo not drawn) [Compound 341, 5-(4-fluorophenyl)sulfonyl-2-[(2-hydroxy-3-methyl-butanoyl)amino] thiophene-3-carboxamide] were 20.2 nM and 1510 nM.
In the same order, the values of `CC(C)(C)C(O)C(=O)Nc1sc(S(=O)(=O)c2ccc(F)cc2)cc1C(N)=O` (stereo not drawn) [Compound 342, 5-(4-fluorophenyl)sulfonyl-2-[(2-hydroxy-3,3-dimethyl-butanoyl)amino] thiophene-3-carboxamide] are 105 nM and 771 nM.
Turning to `CC(C)CC(O)C(=O)Nc1sc(S(=O)(=O)c2ccc(F)cc2)cc1C(N)=O` (stereo not drawn) [Compound 343, 5-(4-fluorophenyl)sulfonyl-2-[(2-hydroxy-4-methyl-pentanoyl)amino] thiophene-3-carboxamide], the EC50 in test [1] worked out at 92.4 nM; in test [2], 1420 nM.
In the same order, the values of `CC(C)(O)C(=O)Nc1sc(S(=O)(=O)c2ccc(C(F)(F)F)cc2)cc1C(N)=O` [Compound 344, 2-[(2-hydroxy-2-methyl-propanoyl)amino]-5-[4-(trifluoromethyl)phenyl] sulfonyl-thiophene-3-carboxamide] are 36 nM and 237 nM.
In the same order, the values of `CC(C)C(O)C(=O)Nc1sc(S(=O)(=O)c2ccc(OC(F)(F)F)cc2)cc1C(N)=O` (stereo not drawn) [Compound 345, 2-[(2-hydroxy-3-methyl-butanoyl)amino]-5-[4-(trifluoromethoxy)phenyl] sulfonyl-thiophene-3-carboxamide] are 111 nM and 528 nM.
On to `CC(C)CC(O)C(=O)Nc1sc(S(=O)(=O)c2ccc(OC(F)(F)F)cc2)cc1C(N)=O` (stereo not drawn) [Compound 346, 2-[(2-hydroxy-4-methyl-pentanoyl)amino]-5-[4-(trifluoromethoxy)phenyl] sulfonyl-thiophene-3-carboxamide], for which the EC50 came to 470 nM in test [1] and 682 nM in test [2].
